Patent US20190060428A1, “FORMULATIONS FOR NEOPLASIA VACCINES AND METHODS OF PREPARING THEREOF” (The Broad Institue Inc., priority 2015, published 2019)

Test: physchem
Conditions: pH 6

| Compound | solubility [µg/mL] |
| --- | --- |
| CC(C)C[C@H](NC(=O)[C@H](C)N)C(=O)N[C@@H](CCC(=O)O)C(=O)N[C@@H](CCC(=O)O)C(=O)N[C@@H](CCCCN)C(=O)N[C@@H](CCCCN)C(=O)NCC(=O)N[C@@H](CC(N)=O)C(=O)N[C@@H](Cc1ccc(O)cc1)C(=O)N[C@H](C(=O)N[C@H](C(=O)N[C@H](C(=O)N[C@@H](CC(=O)O)C(=O)N[C@@H](Cc1c[nH]cn1)C(=O)NCC(=O)N[C@@H](CO)C(=O)N[C@@H](CS)C(=O)N[C@H](C(=O)O)C(C)C)[C@@H](C)O)C(C)C)C(C)C | > 2000 |
| H-AAAFPSQRTSWEFLQSLVSIKQEKPA-OH | < 2000 |
| H-AALCPASRALEEKKGNYV-OH | > 2000 |
| H-AASAAAFPSQRTSWEFLQSLVSIKQEK-OH | > 2000 |
| H-AAVDSVTIPPAQCYLSLLHLQQRRMQSA-OH | > 2000 |
| H-AAVRPEQRPAARGSRV-OH | > 2000 |
| H-AHRQGEKQHLLPVFSRLALRLPWRHSVQL-OH | > 2000 |
| H-AIYHKYYHYLYSYYLPASLKNMVD-OH | < 2000 |
| H-ALCPASRALEEKKGNYVV-OH | > 2000 |
| H-ALLQNVELRRNVLVSPTPLAN-OH | > 2000 |
| H-ALSLTPGLRIGPSGLFLVFLAESAVDKGHPNRS-OH | > 2000 |
| H-AQRKLYQDVMHENFTNLLSVGHQP-OH | > 2000 |
| H-ARLQSKEYPVIFKSIMRQRLISPQL-OH | > 2000 |
| H-AVGATKVPRNQDWLGVSRQL-OH | > 2000 |
| H-DASDFLPDTQLFPHFTELLLPLDPLEGSSV-OH | > 2000 |
| H-DATFSDGSLGQLVKNTSATYALS-OH | > 2000 |
| H-DDNGNILDPDKTSTIALFKAHEV-OH | > 2000 |
| H-DDSLHIQATYISGPVLAGSGD-OH | > 2000 |
| H-DEQGREAELARSGPSAAGPVRLKPGLVPGL-OH | > 2000 |
| H-DGVSEEFWLVDLLPSTHYT-OH | < 2000 |
| H-DHAPEFPAREMLLKYQKLLCQERYFL-OH | < 2000 |
| H-DHAPEFPAREMLLKYQKLLSQER-OH | > 2000 |
| H-DHVSIILLSATIPNALEFADWIG-OH | < 2000 |
| H-DLSYVSDQNGGVPDQILLHLRPTED-OH | > 2000 |
| H-DNHLRRNRLIVVDLFHGQL-OH | > 2000 |

| Compound | solubility [µg/mL] |
| --- | --- |
| H-DPDVGVNSLQQYYLSPDLHFSLI-OH | < 2000 |
| H-DVGVNSLQQYYLSPDLHFSLIQKENLD-OH | < 2000 |
| H-DVTGPHLYSIYLHGSTDKLPYVTMGS-OH | > 2000 |
| H-EAAFSVGATGIITDYPTALRHYLDNHG-OH | < 2000 |
| H-EDSDKLFESKAELADHQKF-OH | > 2000 |
| H-EDSKYQNLLPFFVGHNMLLVSEE-OH | < 2000 |
| H-EQGPWQSEGQTWRAAGGRVPVPCPAAGPG-OH | > 2000 |
| H-ERLSIQNFSKLLNDNIFYMS-OH | < 2000 |
| H-EVVGGYTWPSGNIYQGYWAQGKR-OH | > 2000 |
| H-FLLQVPGSPVVSPSA-OH | > 2000 |
| H-FPVVQSTEDVFPQGLPNEYAFVT-OH | > 2000 |
| H-GAVGATKVPRNQDWL-OH | > 2000 |
| H-GDQYKATDFVADWAGTFKMVFTPKDGSG-OH | > 2000 |
| H-GLTRISIQRAQPLPPCLPSFRPPTALQGLS-OH | > 2000 |
| H-GPLQLPVTRKNMPLPGVVKLPPLPGS-OH | > 2000 |
| H-GRMSPSQFARVPGYVGSPLAAMNPK-OH | > 2000 |
| H-GSGALGAVGATKVPRNQDWL-OH | > 2000 |
| H-GSGSQMPAWRTRGAISASSTQKTPTTRL-OH | > 2000 |
| H-GSTLSPVPWLPSEEFTLWSSLSPPG-OH | > 2000 |
| H-GSVLQFMPFTTVSELMKVSAMSSPKV-OH | > 2000 |
| H-GSYLVALGAHTGEES-OH | > 2000 |
| H-GTEPEPAFQDDAVNAPLEFKMAAGSSG-OH | > 2000 |
| H-GTKALQLHSIAGRWPRMEPWVVESMSLGVP-OH | > 2000 |
| H-HKSIGQPKLSTHPFLCPKPQKMNTSLGQHLTL-OH | > 2000 |
| H-HLLQKQTSIQSPSLYGNSSPPLNK-OH | > 2000 |

| Compound | solubility [µg/mL] |
| --- | --- |
| H-HRPRPFSPGKQVSSAPLFMLDLYN-OH | > 2000 |
| H-IAMGFPQKDLKAYTGTIL-OH | > 2000 |
| H-IGALNPKRAAFFAEHYESWE-OH | < 2000 |
| H-ISSLFVSYFLYRVVFHFE-OH | < 2000 |
| H-KAHVEGDGVVEEIIRYHPFLYDRET-OH | < 2000 |
| H-KGEKNGMTFSSTKDYVNNV-OH | > 2000 |
| H-KKNITNLSRLVVRPDTDAVY-OH | > 2000 |
| H-KLAWRGRISSSGCPSMTSPPSPMFGMTLHT-OH | > 2000 |
| H-KLRTIPLSDNTIFRRICTIAKHLE-OH | > 2000 |
| H-KQGWTTEGIWKDVYIIKL-OH | < 2000 |
| H-KQYLDHSGNLMSMHNIKIFMFQLLRG-OH | < 2000 |
| H-LARDIPPAVTGKWKLSDLRRYGAVPSG-OH | > 2000 |
| H-LEEVAQRSHAVRSPGSPLILEVG-OH | > 2000 |
| H-LENNANHDETSFLLPRKESNIVD-OH | > 2000 |
| H-LHTHYDYVSALHPVSTPSKEYTSA-OH | > 2000 |
| H-LKEMNEKVSFIKNSLLSLDSQVGHLQD-OH | < 2000 |
| H-LLDILDTAGREEYSAMRDQYMRT-OH | > 2000 |
| H-LMGRLQHTFKQKMTGVGASLEKR-OH | > 2000 |
| H-LMSNLAFADFCMRMYL-OH | < 2000 |
| H-LNTGLFRIKFKEPLENLI-OH | > 2000 |
| H-LNYLRTAKFLEMYGVDLHPVYG-OH | < 2000 |
| H-LPDEVSGLEQLESIINFEKL-OH | > 2000 |
| H-LPVFIGNIAVNHAPVSLRPGLGLPPGAPPGTVP-OH | > 2000 |
| H-LSVPFTCGVNFGDSIEDLEI-OH | > 2000 |
| H-LTKLKFSLKKSFNFFDEYF-OH | < 2000 |

| Compound | solubility [µg/mL] |
| --- | --- |
| H-LVGQLKRVPRTGRVYRNVQRPESVS-OH | > 2000 |
| H-MAGPKGFQYRALYPFRRER-OH | > 2000 |
| H-MPPPGALMGLALKKKSIPQPTN-OH | > 2000 |
| H-NHSAKFLKELTLAMDELEENFRG-OH | < 2000 |
| H-NNGPVTILQRIHHMAASHVNITS-OH | < 2000 |
| H-PAHPSQGAVPPSRAAAEPHLKPSPSELQTA-OH | > 2000 |
| H-PAPPPAVPKEHPAPPAPPPASAPTP-OH | > 2000 |
| H-PASAKSRREFDKIELAYRR-OH | > 2000 |
| H-PENDDLFMMPRIVDVTSLATEGG-OH | > 2000 |
| H-PGGDSGELITDAHELGVAHPPGY-OH | > 2000 |
| H-PRVDLQGAELWKRLHEIGTEMIITK-OH | > 2000 |
| H-PSTANYNSFSSAPMPQIPVASVTPT-OH | > 2000 |
| H-RARQILIASHLPFYELRHNQVES-OH | > 2000 |
| H-RGQIKLADFRLARLYSSEESR-OH | > 2000 |
| H-RPAGRTQLLWTPAAPTAMAEVGPGHTP-OH | > 2000 |
| H-RRGGALFASRPRFTPL-OH | > 2000 |
| H-RYNSTAATNEVSEVTVFSKSPVT-OH | > 2000 |
| H-SAVSAASIPAEHINQATNGGGS-OH | > 2000 |
| H-SDAFSGLTALPQSILLFGP-OH | > 2000 |
| H-SERYIGTEGGGMDQSILFLAEEGTAK-OH | < 2000 |
| H-SGARIGAPPPHATATSSSSFMPGTWGREDL-OH | > 2000 |
| H-SGQPAPEETVLFLGLLHGLLLILRRLRGG-OH | < 2000 |
| H-SGSPPLRVSVGDFSQEFSPIQEAQQD-OH | > 2000 |

Second part, the compound after the results:

| solubility [µg/mL] | Compound |
| --- | --- |
| < 2000 | H-ADRRRQRSTFRAVLHFVEGGESEE-OH |
| > 2000 | H-AESAQRQGPNGGGEQSANEF-OH |
| < 2000 | H-AIISSLFVSYFLYR-OH |
| > 2000 | H-ASATEPANDSLFSPGAANLFSTYLAR-OH |
| > 2000 | H-DGAWPVLLDKFVEWYKDKQMS-OH |
| > 2000 | H-DGGRQHSGPRRHSGAGPKPSSSEWAVCWAP-OH |
| > 2000 | H-DKGHQFHVHPLLHSGDDLDP-OH |
| < 2000 | H-DPLMTCSEPERLTEILFQRAELE-OH |
| > 2000 | H-DRSVLAKKLKFVTLVFRHGDRSPID-OH |
| > 2000 | H-DSAVDKGHPNRSALSLTPGLRIGPSGLFLVFLA-OH |
| > 2000 | H-DSPAGPRRKECTMALAPNFTANNR-OH |
| < 2000 | H-DVTYDGHPVLGSPYTVEASL-OH |
| < 2000 | H-EEFNRRVRENPWDTQLWMAFVAFQDE-OH |
| > 2000 | H-EIHGKCENMTITSRGTTVTPTKETVSLG-OH |
| < 2000 | H-EYWKVLDGELEVAPEYPQSTARDWL-OH |
| > 2000 | H-FAKGFRESDLNSWPVAPRPLLSV-OH |
| < 2000 | H-FKMDRQGVTQVLSCLSYISALGMMT-OH |
| > 2000 | H-FVGKLQRHPVAVDVLL-OH |
| > 2000 | H-FYSNSTVSETQWKVTVTPR-OH |
| > 2000 | H-GHQKLPGKIHLFEAEFTQVAKKEPDG-OH |
| > 2000 | H-GLEQLESIINFEKL-OH |
| < 2000 | H-GLEQLESIINFEKLTEWTSS-OH |

| solubility [µg/mL] | Compound |
| --- | --- |
| > 2000 | H-KGASLDAGWGSPRWTTTRMTSASAGRSTRA-OH |
| > 2000 | H-KHLPGVNFPGNQWNPVEGILPS-OH |
| > 2000 | H-KMQRRNDDKSILMHGLVSLRESSRG-OH |
| > 2000 | H-LGETMGQVTEKLQPTYMEET-OH |
| < 2000 | H-LHFIMPEKFSFWEDFEE-OH |
| > 2000 | H-LLTDRNTSGTTFTLLGVSDYPELQVPLFLVFLA-OH |
| > 2000 | H-LPDEVSGLEQLESIINFEKLTEWTSSNVME-OH |
| < 2000 | H-LRVFIGNIAVNHAPVSLRPGLGLPPGAPPGTVP-OH |
| > 2000 | H-LSPREEFLRLCKKIMMRSIQ-OH |
| > 2000 | H-MSQDIKKADEQIESMTYSTERKT-OH |
| > 2000 | H-NILHQEELIAQKKWEIEAKMEQK-OH |
| > 2000 | H-NNQTNSPTTPNFGSSGSFNLPNSGD-OH |
| > 2000 | H-NNSKKKWFLFQDSKKIQVEQPQ-OH |
| > 2000 | H-NQVLASRYGIRGFSTIKIFQKGESPV-OH |
| > 2000 | H-PAAVDSVTIPPAQCYLSLLHL-OH |
| > 2000 | H-PLMQTELHQLVPEADPEEMA-OH |
| > 2000 | H-RLVLGKFGDLTNNFSSPHAR-OH |
| > 2000 | H-RQRRGRLGLPGEAGLEGFEPSDALGPD-OH |
| > 2000 | H-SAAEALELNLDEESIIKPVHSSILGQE-OH |
| < 2000 | H-SAVSAASIPAMHINQATNGGGS-OH |
| > 2000 | H-SEIDFPMARSKLLKKKLPSKDL-OH |
